Measurements: PMC3006138, “Fexinidazole – A New Oral Nitroimidazole Drug Candidate Entering Clinical Development for the Treatment of Sleeping Sickness” (PLoS Neglected Tropical Diseases, 2010)
Each block holds one compound with its values, some of them ahead of it.

What was measured:
[1] = Mouse single-dose plasma pharmacokinetics; assay type: in vivo; settings: for AUC(0-t) / Cmax / Tmax / AUC(0-inf) / half-life / bioavailability / AUC0–24: plasma; for bioavailability: fexinidazole 25 mg/kg po vs 1 mg/kg iv
Experimental: Blood samples were taken via into heparinised collection tubes and, following centrifugation, plasma was removed and stored frozen until required for assay.
All PK evaluations were carried out using validated high performance liquid chromatography (HPLC) and LC-MS assays, as per standard operating procedures of the laboratories involved.
One mouse PK and brain sampling study was carried out by BioDynamics Ltd., Rushden, UK, according to internal Standard Operating Procedures as a non-GLP regulated study, and animals were maintained as required by the “Code of practice for the housing and care of animals used in scientific procedures” (Home Office, London, 1989).
BioDynamics Study No: DND/01
Two groups of female mice were dosed as follows:
Number Treatment Dose (mg/kg) Route
All doses are expressed as free base
Intravenous doses were administered into a lateral tail vein using an appropriately sized syringe and 25G needle and the oral formulation by oral gavage using a polypropylene gavage tube. All doses were given as a single bolus dose at a constant dose volume of 10.0 mL/kg.
1.6 Blood sample collection
At each sampling time point, three animals in each treatment group were deeply anaesthetised using isoflurane and blood samples (approximately 1 mL) taken into individual heparinised tubes by cardiac puncture, following which the animals were killed by cervical fracture. Samples were collected at the following times post-dose:
Following collection, the blood samples were centrifuged (approximately 10000 g, 2 min at 4 °C) and the plasma retained as one aliquot at approximately -70°C prior to analysis of test material concentrations at BioDynamics by LC-MS/MS.
1.7 Collection of terminal brain samples
Following collection of the terminal blood sample the cranium of each mouse was carefully opened and the brain removed. Excess blood was washed from the brain with distilled water and any excess fluid blotted on absorbent paper. The brain was then snap frozen using liquid nitrogen and placed into a suitably labelled container and stored frozen at approximately -70°C pending analysis.
All of the plasma samples together with the brains from the 15 minute time point were analysed for concentrations of the test material and its sulfone and sulfoxide metabolites. In addition the brains from the 5 and 30 minute time points for the intravenously treated and the 30 and 60 minute time points for the orally treated animals were analysed for concentrations of Fexinidazole and its sulfone and sulfoxide metabolites using an LC-MS/MS method developed at BioDynamics.
All samples were treated as temperature sensitive. Blood samples were collected onto wet ice, followed by centrifugation at 4 °C. Plasma and brain samples were snap frozen on dry ice (plasma) or liquid nitrogen (brains) prior to long term storage at less than -70 °C pending analysis.
Summed transitions were used to enhance sensitivity. No instability of the test materials was noted during the course of analysis or on re-injection of the samples into the mass spectrometer under the […]
3. Pharmacokinetic analysis
The plasma concentration vs time curves obtained following intravenous and oral administration of the test compounds to female mice were analysed using WinNonLin (Version 4.1, Scientific Consulting
Inc. USA). The kinetic data were characterised by a non-compartmental analysis (NCA).
The following pharmacokinetic parameters were derived from the profiles: maximum peak plasma concentration (Cmax); the time of maximum observed concentration (Tmax); the terminal half life (T½), and area under the plasma concentration curve (AUC), 3.1.1 Area under the curve (AUC)
The AUC was determined using the linear/log trapezoidal method. A value of zero was used for any plasma concentrations recorded as below the limits of quantification (LLOQ). The AUCinf (observed) was calculated as the area under the curve from the time of dosing extrapolated to time infinity based on the observed concentrations. The AUClast was also determined. […]

[2] = Dog 28-day toxicokinetics; assay type: in vivo; settings: both sexes, beagle, plasma, po
Experimental: In the dog repeated-dose toxicokinetic study, fexinidazole was given orally by gavage once a day for 28 days to five (control and high dose) or three (low and mid dose) beagle dogs/sex/dose at the doses of 0 (control group), 50, 200, or 800 mg/kg/day. The control group received the vehicle alone (same as above). Systemic exposure to fexinidazole and of its sulfoxide and sulfone metabolites was evaluated on days 1, 14 and 28 in the same animals used for the toxicological study. Samples were taken at predose, and 30 min, 1, 2, 4, 8 and 24 h after dosing on days 1, 14, and 28, and in addition at 48 and 72 h after treatment on day 28.

[3] = female, NMRI, mouse, iv, 1 mg/kg, fexinidazole 1 mg/kg iv, read-out: AUC0-24
[4] = female, NMRI, mouse, iv, 1 mg/kg, fexinidazole 1 mg/kg iv, read-out: Cmax
[5] = female, NMRI, mouse, po, 25 mg/kg, fexinidazole 25 mg/kg po, read-out: AUC0–24
[6] = female, NMRI, mouse, fexinidazole 1 mg/kg iv
[7] = female, NMRI, mouse, fexinidazole 25 mg/kg po
[8] = 50 mg/kg/day, 50 mg/kg/day po, day 1
[9] = 50 mg/kg/day, 50 mg/kg/day po, day 1, read-out: AUC0-t(last)
[10] = 50 mg/kg/day, 50 mg/kg/day po, day 14
[11] = 50 mg/kg/day, 50 mg/kg/day po, day 14, read-out: AUC0-t(last)
[12] = 200 mg/kg/day, 200 mg/kg/day po, day 1
[13] = 200 mg/kg/day, 200 mg/kg/day po, day 1, read-out: AUC0-t(last)
[14] = 200 mg/kg/day, 200 mg/kg/day po, day 14
[15] = 200 mg/kg/day, 200 mg/kg/day po, day 14, read-out: AUC0-t(last)
[16] = 800 mg/kg/day, 800 mg/kg/day po, day 1
[17] = 800 mg/kg/day, 800 mg/kg/day po, day 1, read-out: AUC0-t(last)
[18] = 800 mg/kg/day, 800 mg/kg/day po, day 14
[19] = 800 mg/kg/day, 800 mg/kg/day po, day 14, read-out: AUC0-t(last)
[20] = female, NMRI, mouse, po, 25 mg/kg, fexinidazole 25 mg/kg po, female NMRI mice, read-out: Cmax

SMILES: Cn1c([N+](=O)[O-])cnc1COc1ccc(S(C)(=O)=O)cc1 [Fexinidazole sulfone]
AUC(0-t) [1, 3]: 7990 ng·h/mL | Cmax [1, 4]: 511 ng/mL | AUC(0-t) [1, 5]: 96300 ng·h/mL | Tmax [1, 6]: 2 h | AUC(0-inf) [1, 7]: 96300 ng·h/mL | Tmax [1, 7]: 4 h | half-life [1, 7]: 1.7 h | bioavailability ([1]; female, NMRI, mouse): 48.8% | Cmax ([1]; fexinidazole 1 mg/kg iv): 790.4 ng/mL | Cmax ([1]; fexinidazole 25 mg/kg po, female NMRI mice, listed as Sulfone): 13651.3 ng/mL | Cmax ([1]; fexinidazole 25 mg/kg po, female NMRI mice, listed as Sulfone metabolite): 13651 ng/mL | Cmax ([1]; fexinidazole 25 mg/kg po, female NMRI mice, listed as sulfone): 6599.6 ng/mL | AUC0–24 ([1]; fexinidazole 25 mg/kg po, listed as Sulfone metabolite): 96286 ng·h/mL | Cmax [2, 8]: 8580 ± 2150 ng/mL | Tmax [2, 8]: 7.33 ± 1.63 h | AUC(0-t) [2, 9]: 146000 ± 38300 ng·h/mL | Cmax [2, 10]: 7780 ± 2890 ng/mL | Tmax [2, 10]: 5.33 ± 2.07 h | AUC(0-t) [2, 11]: 126000 ± 59100 ng·h/mL | Cmax [2, 12]: 17600 ± 2460 ng/mL | Tmax [2, 12]: 12.7 ± 8.91 h | AUC(0-t) [2, 13]: 348000 ± 63900 ng·h/mL | Cmax [2, 14]: 21800 ± 3860 ng/mL | Tmax [2, 14]: 5.33 ± 2.07 h | AUC(0-t) [2, 15]: 384000 ± 49900 ng·h/mL | Cmax [2, 16]: 36100 ± 7940 ng/mL | Tmax [2, 16]: 14.4 ± 8.26 h | AUC(0-t) [2, 17]: 660000 ± 164000 ng·h/mL | Cmax [2, 18]: 36600 ± 6240 ng/mL | Tmax [2, 18]: 6.8 ± 1.93 h | AUC(0-t) [2, 19]: 653000 ± 118000 ng·h/mL

AUC(0-t) [1, 3]: 1590 ng·h/mL | Cmax [1, 4]: 918 ng/mL | Cmax [1, 20]: 14200 ng/mL | AUC(0-t) [1, 5]: 45000 ng·h/mL | AUC(0-inf) [1, 6]: 1560 ng·h/mL | Tmax [1, 6]: 0.25 h | half-life [1, 6]: 0.6 h | AUC(0-inf) [1, 7]: 45000 ng·h/mL | Tmax [1, 7]: 0.5 h | half-life [1, 7]: 1 h | AUC0–24 ([1]; fexinidazole 25 mg/kg po, listed as Sulfoxide metabolite): 45031 ng·h/mL
SMILES: Cn1c([N+](=O)[O-])cnc1COc1ccc([S+](C)[O-])cc1 (centres unmarked) [Fexinidazole sulfoxide]
Cmax [2, 8]: 3760 ± 970 ng/mL | Tmax [2, 8]: 1.17 ± 0.41 h | AUC(0-t) [2, 9]: 19600 ± 5680 ng·h/mL | Cmax [2, 10]: 2990 ± 980 ng/mL | Tmax [2, 10]: 1.33 ± 0.52 h | AUC(0-t) [2, 11]: 13600 ± 5990 ng·h/mL | Cmax [2, 12]: 8120 ± 2660 ng/mL | Tmax [2, 12]: 1.25 ± 0.61 h | AUC(0-t) [2, 13]: 51400 ± 14100 ng·h/mL | Cmax [2, 14]: 8990 ± 2830 ng/mL | Tmax [2, 14]: 2 h | AUC(0-t) [2, 15]: 56700 ± 16600 ng·h/mL | Cmax [2, 16]: 14500 ± 3950 ng/mL | Tmax [2, 16]: 1.55 ± 0.6 h | AUC(0-t) [2, 17]: 112000 ± 31800 ng·h/mL | Cmax [2, 18]: 13600 ± 4090 ng/mL | Tmax [2, 18]: 1.6 ± 0.97 h | AUC(0-t) [2, 19]: 129000 ± 39800 ng·h/mL

SMILES: CSc1ccc(OCc2ncc([N+](=O)[O-])n2C)cc1 [Fexinidazole, 1-methyl-2-((p-(methylthio)phenoxy)methyl)-5-nitroimidazole]
clinical signs ([1]; 1 mg/kg iv or 25 mg/kg po): No clinical signs were observed | AUC(0-t) [1, 3]: 41 ng·h/mL | Cmax [1, 4]: 164 ng/mL | Cmax [1, 20]: 500 ng/mL | AUC(0-t) [1, 5]: 424 ng·h/mL | AUC(0-inf) [1, 6]: 42 ng·h/mL | Tmax [1, 6]: 0.0833 h | half-life [1, 6]: 0.1 h | AUC(0-inf) [1, 7]: 439 ng·h/mL | Tmax [1, 7]: 0.25 h | half-life [1, 7]: 0.8 h | bioavailability ([1]; female, NMRI, mouse): 41.4% | bioavailability ([1]; female, mouse): 41% | Cmax ([1]; fexinidazole 25 mg/kg po, female NMRI mice): 500 ng/mL | Cmax [2, 8]: 40 ± 10 ng/mL | Tmax [2, 8]: 0.75 ± 0.61 h | AUC(0-t) [2, 9]: 190 ± 130 ng·h/mL | Cmax [2, 10]: 30 ± 10 ng/mL | Tmax [2, 10]: 1.08 ± 0.74 h | AUC(0-t) [2, 11]: 150 ± 130 ng·h/mL | Cmax [2, 12]: 70 ± 30 ng/mL | Tmax [2, 12]: 1 ± 0.55 h | AUC(0-t) [2, 13]: 440 ± 90 ng·h/mL | Cmax [2, 14]: 80 ± 10 ng/mL | Tmax [2, 14]: 1.5 ± 0.77 h | AUC(0-t) [2, 15]: 450 ± 140 ng·h/mL | Cmax [2, 16]: 140 ± 70 ng/mL | Tmax [2, 16]: 1.15 ± 0.47 h | AUC(0-t) [2, 17]: 840 ± 320 ng·h/mL | Cmax [2, 18]: 140 ± 50 ng/mL | Tmax [2, 18]: 1.2 ± 0.42 h | AUC(0-t) [2, 19]: 1050 ± 300 ng·h/mL
